According to the supplement of paper PMC10627819:

Legend:
Assay in all cases: Bliss interaction score (quartile over a dose matrix) (fitness difference); higher = more antagonism (negative = synergy)
B. subtilis 168 = system: B. subtilis 168
Method in brief: (§1)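 Fitness was defined as normalised growth: OD595 at the start of stationary phase divided by the plate's robust no-drug mean and capped at 1. Single-drug fitness was inferred from combination measurements. The Bliss score is observed fitness minus the product of the single-drug values, summarised by quartiles across technical, biological and donor/recipient replicates.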

S. aureus DSM 20231 = system: S. aureus DSM 20231
Method in brief: as §1

S. aureus Newman = system: S. aureus Newman
Method in brief: as §1

S. pneumoniae D39V = system: S. pneumoniae D39V
Method in brief: as §1
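Further: first quartile when negative (synergy) and third quartile when positive (antagonism).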

Structure (SMILES)	Bliss interaction score (B. subtilis 168)	Bliss interaction score (S. aureus DSM 20231)	Bliss interaction score (S. aureus Newman)	Bliss interaction score (S. pneumoniae D39V)	Bliss interaction score (B. subtilis 168; main component drawn)	Bliss interaction score (S. aureus DSM 20231; main component drawn)	Bliss interaction score (S. aureus Newman; main component drawn)	Bliss interaction score (S. pneumoniae D39V; main component drawn)
O=C(O)c1cn(C2CC2)c2cc(N3CCNCC3)c(F)cc2c1=O [Ciprofloxacin] + CC[C@H]1OC(=O)[C@H](C)C(=O)[C@H](C)[C@@H](O[C@@H]2O[C@H](C)C[C@H](N(C)C)[C@H]2O)[C@](C)(OC)C[C@@H](C)C(=O)[C@H](C)[C@H]2N(CCCCn3cnc(-c4cccnc4)c3)C(=O)O[C@]12C [Telithromycin]	0.149	0.0454	0.0334	0.0763				
N#CC(C#N)=NNc1cccc(Cl)c1 [CCCP] + CC1=C\[C@@H](O)CC(=O)Cc2nc(co2)C(=O)N2CCC=C2C(=O)O[C@H](C(C)C)[C@H](C)/C=C/C(=O)NC\C=C\1 [Virginiamycin M1]	-0.0262	0.0407	-0.0388	0.0981				
N#CC(C#N)=NNc1cccc(Cl)c1 [CCCP] + O=C(N[C@H](CO)[C@H](O)c1ccc([N+](=O)[O-])cc1)C(Cl)Cl [Chloramphenicol]	-0.0662	-0.0344	0.076	-0.0866				
CC(=O)Oc1ccccc1C(=O)O [Acetylsalicylicacid] + CN[C@H](CC(C)C)C(=O)N[C@H]1C(=O)N[C@@H](CC(N)=O)C(=O)N[C@H]2C(=O)N[C@H]3C(=O)N[C@H](C(=O)N[C@H](C(=O)O)c4cc(O)cc(O)c4-c4cc3ccc4O)[C@H](O)c3ccc(c(Cl)c3)Oc3cc2cc(c3O[C@@H]2O[C@H](CO)[C@@H](O)[C@H](O)[C@H]2O[C@H]2C[C@](C)(N)[C@H](O)[C@H](C)O2)Oc2ccc(cc2Cl)[C@H]1O [Vancomycin]	-0.0629	-0.0542	0.0599	0.114				
CN(C)[C@@H]1C(O)=C(C(N)=O)C(=O)[C@@]2(O)C(O)=C3C(=O)c4c(O)ccc(Cl)c4[C@@](C)(O)[C@H]3C[C@@H]12 [Clortetracycline] + CN[C@@H]1[C@H](O[C@H]2[C@H](O[C@H]3[C@H](O)[C@@H](O)[C@H](N=C(N)N)[C@@H](O)[C@@H]3N=C(N)N)O[C@@H](C)[C@]2(O)C=O)O[C@@H](CO)[C@H](O)[C@H]1O [Streptomycin]	0.156	-0.0487	-0.0515	-0.0408				
N#CC(C#N)=NNc1cccc(Cl)c1 [CCCP] + CO[C@@]12[C@H](COC(N)=O)C3=C(C(=O)C(C)=C(N)C3=O)N1C[C@@H]1N[C@@H]12 [MitomycinC]	-0.051	-0.0844	-0.0345	-0.0605				
CN(C)[C@@H]1C(O)=C(C(N)=O)C(=O)[C@@]2(O)C(O)=C3C(=O)c4c(O)ccc(Cl)c4[C@@](C)(O)[C@H]3C[C@@H]12 [Clortetracycline] + CN[C@@H]1[C@H](O)[C@H](NC)[C@H]2O[C@@]3(O)C(=O)C[C@@H](C)O[C@H]3O[C@@H]2[C@H]1O [Spectinomycin]	-0.0478	-0.0598	-0.0716	0.0439				
CC(=O)Oc1ccccc1C(=O)O [Acetylsalicylicacid] + CC(C1CCC(C(O1)OC2C(CC(C(C2O)OC3C(C(C(CO3)(C)O)NC)O)N)N)N)NC [Gentamicin]					0.286	0.165	0.0614	0.0535
CC(=O)Oc1ccccc1C(=O)O [Acetylsalicylicacid] + O=C1CN(/N=C/c2ccc([N+](=O)[O-])o2)C(=O)N1 [Nitrofurantoin]	-0.202	-0.0978	-0.0905	0.0904				
CO/N=C(\C(=O)N[C@@H]1C(=O)N2C(C(=O)O)=C(COC(N)=O)CS[C@H]12)c1ccco1 [Cefuroxime] + CN[C@H](CC(C)C)C(=O)N[C@H]1C(=O)N[C@@H](CC(N)=O)C(=O)N[C@H]2C(=O)N[C@H]3C(=O)N[C@H](C(=O)N[C@H](C(=O)O)c4cc(O)cc(O)c4-c4cc3ccc4O)[C@H](O[C@H]3C[C@](C)(N)[C@@H](O)[C@H](C)O3)c3ccc(c(Cl)c3)Oc3cc2cc(c3O[C@@H]2O[C@H](CO)[C@@H](O)[C@H](O)[C@H]2O[C@H]2C[C@](C)(NCc3ccc(-c4ccc(Cl)cc4)cc3)[C@@H](O)[C@H](C)O2)Oc2ccc(cc2Cl)[C@H]1O [Oritavancin]	-0.0309	-0.0743	-0.103	0.0536				
CO/N=C(\C(=O)N[C@@H]1C(=O)N2C(C(=O)O)=C(COC(C)=O)CS[C@H]12)c1csc(N)n1 [Cefotaxime] + O=C(O)c1cn(C2CC2)c2cc(N3CCNCC3)c(F)cc2c1=O [Ciprofloxacin]	-0.144	-0.0413	0.0294	0.154				
CC(=O)Oc1ccccc1C(=O)O [Acetylsalicylicacid] + COc1ccc(C[C@H](N)C(=O)N[C@H]2[C@@H](O)[C@H](n3cnc4c(N(C)C)ncnc43)O[C@@H]2CO)cc1 [Puromycin]	0.0812	0.0722	-0.0494	0.149				
CC(=O)Oc1ccccc1C(=O)O [Acetylsalicylicacid] + COc1c(N2C[C@@H]3CCCN[C@@H]3C2)c(F)cc2c(=O)c(C(=O)O)cn(C3CC3)c12 [Moxifloxacin]	-0.0213	0.114	0.114	0.0628				
N#CC(C#N)=NNc1cccc(Cl)c1 [CCCP] + Cc1cc(NS(=O)(=O)c2ccc(N)cc2)no1 [Sulfamethoxazol]	-0.0348	-0.0343	-0.0463	0.0794				
O=C(O)c1cn(C2CC2)c2cc(N3CCNCC3)c(F)cc2c1=O [Ciprofloxacin] + N[C@@H]1CONC1=O [CycloserineD]	-0.0971	-0.0461	-0.105	0.0695				
CN(C)[C@@H]1C(O)=C(C(N)=O)C(=O)[C@@]2(O)C(O)=C3C(=O)c4c(O)ccc(Cl)c4[C@@](C)(O)[C@H]3C[C@@H]12 [Clortetracycline] + CO[C@@H]1[C@@H](OC(N)=O)[C@@H](O)[C@H](Oc2ccc3c(O)c(NC(=O)c4ccc(O)c(CC=C(C)C)c4)c(=O)oc3c2C)OC1(C)C [Novobiocin]	0.0909	0.104	0.0791	0.192				
N#CC(C#N)=NNc1cccc(Cl)c1 [CCCP] + CCC[C@@H]1C[C@@H](C(=O)N[C@@H]([C@H]2O[C@H](SC)[C@H](O)[C@@H](O)[C@H]2O)[C@@H](C)O)N(C)C1 [Lincomycin]	-0.0311	-0.0627	0.116	0.0513				
CC(=O)Oc1ccccc1C(=O)O [Acetylsalicylicacid] + O=C(O)[C@H]1/C(=C/CO)O[C@@H]2CC(=O)N21 [Clavulanic]	0.0831	-0.553	0.0986	0.0345				
